PMC10042540, “Targeting oncogenic KRasG13C with nucleotide-based covalent inhibitors” (eLife, 2023)

Experiments:
[1] = tested on: farnesyltransferase (FTase); experiment: In vitro farnesylation; format: biochemical; details: full-length protein, FPP, ESI-MS
Method: 50 µM of full-length KRas protein was mixed with 250 µM farnesyl pyrophosphate (FPP) and 10 µM farnesyltransferase (FTase). After incubation at room temperature for 1 hr the mixture was centrifugated at 14,000 rpm for 10 min at 4 °C and analyzed via ESI-MS (Figure 3—figure supplement 4).

[2] = tested on: GST-tagged cRafRBD (amino acids 51–131); experiment: Effector binding (pull-down experiments); details: in the presence of GppNHp alone or in combination with SOS
Method: Pull-down experiments were performed in 20 mM HEPES pH 7.5, 50 mM NaCl and 2 mM MgCl2. […] Afterwards, 50 µL glutathione magnetic beads were added to each sample for 30 min. After washing the beads with 500 µL buffer, the beads were settled with a magnet and the supernatant was carefully removed. The beads were resuspended in 50 µL of 4xSDS-loading buffer and visualized via SDS-PAGE (Figure 3—figure supplement 3).

tErk = experiment: Electroporation into HeLa cells, western blot quantification; format: cell-based, human; details: for tErk mean fold change: mean of cell lysates
In short: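 HeLa cells electroporated (2×35 ms, 1000 V) with 0–300 µg recombinant full-length KRas WT or G13C constructs, washed, then recovered for 24 h at 37 °C. Lysates (10 µg protein) analysed by SDS-PAGE and fluorescent western blotting, with protein levels quantified from blot signal.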

SOS = experiment: Guanine nucleotide-exchange factor assay (mantdGDP fluorescence); format: biochemical
Method: SOS-catalysed nucleotide exchange was monitored at 25 °C in a FluoroMax-3 spectrofluorometer (excitation at 360 nm, emission at 440 nm) in 20 mM HEPES (pH 7.5), 100 mM NaCl, 2 mM MgCl2, and 1 mM TCEP. 5 µM KRas1-169 was mixed with 10 µM mantdGDP and subsequently with different concentrations of SOS (0.25 µM and 0.5 µM) (Figure 3A; Figure 3—figure supplement 1).

[3] = tested on: Ras pathway (pcRaf, pAkt, pErk, pS6); experiment: Electroporation into HeLa cells, western blot of downstream signalling; format: cell-based, human; details: electroporation of 50-300 µg protein
Method: HeLa cells were obtained from the American Type Culture Collection (ATCC) and were cultured in DMEM medium (Gibco) supplemented with 10% fetal bovine serum (FBS) (PAN-Biotech) and 1% penicillin/streptomycin (Gibco). Cells were cultured in a humidified incubator at 37 °C in the presence of 5% CO2. The identity of the cells was validated by STR profiling and the cells were tested negative for mycoplasma contamination.
Electroporation of full-length KRas constructs (KRasWT, KRasG13C, KRasG13C-edaGDP, KRasG13C:acetyledaGDP and KRasG13C-edaGppCp) was performed based on the protocol described by [Alex et al., 2019] using the Neon Transfection System Kit (Thermo Fisher). For electroporation, 3 million cells per experiment were harvested by trypsinization, washed with PBS, and resuspended in 85 µL of the electroporation buffer R (Thermo Fisher). Increasing amounts of recombinant protein samples for each construct (0, 50, 100, 200 and 300 µg) were diluted 1:1 in buffer R followed by the addition of 30 µL of this protein master mix to the cell suspension. This cellular slurry was loaded into a […] Neon Pipette Tip (Thermo Fisher) and electroporated with 2x35 ms pulses at 1000 V. After electroporation, the cells were washed twice with PBS (15 mL) to remove non-internalized extracellular protein and the cell pellet was resuspended in 2 mL complete growth media. Cells were transferred into six-well tissue culture plates (Sarstedt) and incubated for 24 hr at 37 °C and 5% CO2 in a humidified incubator for recovery before being processed for western blotting analysis.
After recovery of the electroporation, cells were washed twice with ice-cold PBS and lysed in 100 µL of phosphatase and protease inhibitor containing RIPA buffer (Cell Signaling Technology). Cells were incubated on ice for 30 min and then harvested by scraping followed by centrifugation at 14,000 rpm for 10 min at 4 °C. Protein concentrations were determined using the Pierce BCA protein assay (Thermo) following the manufacturer’s recommended procedure. Equal amounts of protein (10 µg) were analyzed by SDS-PAGE and transferred to Immobilon-FL PVDF membranes (Merck Millipore) using Pierce 1-step transfer buffer (Thermo) and the Pierce Power Blotter (Thermo). Membranes were washed with ddH2O for 5 min, blocked with OdysseyBlocking Buffer TBS (Li-Cor) for 1 hr at room temperature and then incubated with primary antibodies diluted in OdysseyBlocking Buffer TBS overnight at 4 °C with gentle agitation. […] Quantification of protein levels from western blots was performed using Empiria Studio (Li-Cor) (Figure 3B, C, Figure 3—figure supplements 6–9).

“KRasG13C-edaGDP: KRasG13C covalently locked with edaGDP at Cys13” was tested, and the in vitro farnesylation [1] was “fully farnesylated”, the “binding to RafRBD (pull-down)” value [2] was “neither in the presence of GppNHp nor of additional SOS able to bind to the RafRBD” and the tErk fold change (tErk; 50 µg, Cell lysate 1) was 0.84. For the same substance, the tErk fold change (tErk; 50 µg, Cell lysate 2) was 2.08, the tErk fold change (tErk; 50 µg, Cell lysate 3) was 0.64 and the “tErk mean fold change” value (tErk; 50 µg) was 1.19. The tErk fold change (tErk; 100 µg, Cell lysate 1) was 0.91, the tErk fold change (tErk; 100 µg, Cell lysate 2) was 1.86 and the tErk fold change (tErk; 100 µg, Cell lysate 3) was 0.78. The “tErk mean fold change” value (tErk; 100 µg) was 1.18, the tErk fold change (tErk; 200 µg, Cell lysate 1) was 1.12 and the tErk fold change (tErk; 200 µg, Cell lysate 2) was 1.76. For the same substance, the tErk fold change (tErk; 200 µg, Cell lysate 3) was 0.74, the “tErk mean fold change” value (tErk; 200 µg) was 1.21 and the tErk fold change (tErk; 300 µg, Cell lysate 1) was 1.26. For the same substance, the tErk fold change (tErk; 300 µg, Cell lysate 2) was 1.23, the tErk fold change (tErk; 300 µg, Cell lysate 3) was 0.72 and the “tErk mean fold change” value (tErk; 300 µg) was 1.07. For the same substance, the SOS-catalysed nucleotide exchange (SOS; 5 µM KRas1-169, 10 µM mantdGDP, 0.25 or 0.5 µM SOS) was “unable to do so”, the “intrinsic nucleotide exchange rate” value (SOS; absence of SOS) was “abrogated” and the “downstream signalling (pcRaf, pAkt, pErk, pS6)” value [3] was “unable to induce these effects”.
